Legend:
MRSA 16116 = assay: Time-killing curve, inoculum 5.10^5 CFU/ml (MIC 0.5 μg/ml); format: cell-based, Staphylococcus aureus
Procedure: (§1) The objective of this study is to assess in vitro the time-killing curves of oxyclozanide against four strains of Methicillin-Resistant Staphylococcus from dogs.
(§2) Two Methicillin-Resistant Staphylococcus aureus (MRSA) and two Methicillin-Resistant Staphylococcus pseudintermedius (MRSP) isolated from the clinics have been tested.
(§3) The assessment of time-killing curves has been realized by a broth macrodilution method (Mueller-Hinton II Broth).
(§4) Oxyclozanide is diluted in (DMSO) into sterile tubes in order to obtain the following concentrations from 800 to 6.25 μg/ml. Those concentrations and stock standard solution are then diluted (1/10) in Mueller-Hinton II Broth in order to obtain the following concentrations from […] (See Table 2).
(§5) Each operation is performed under sterile conditions. Each working standard solution (10*the final active ingredient concentration) is distributed in tubes (1 ml, for a final volume of 10 ml after addition of 9 ml of inoculum). One tube without active ingredient is used as growth control (Concentration=0).
(§6) Bacterial isolates are sub-cultured from one cryobead on Columbia agar supplemented with 5% of blood. Pure cultures are incubated during 18-24 hours at 37° C. Three to five isolated colonies of similar appearance are selected from a previous culture and transferred into tubes containing 9 ml of Mueller-Hinton II Broth. The broth is incubated during 12-18 hours at 37° C. 0.5 to 1 ml of this broth is inoculated to another Mueller-Hinton II Broth 9 ml tube which is incubated during 3 to 4 hours at 37° C. to reach the exponential growth phase. The bacterial inoculum grown exponential phase is suspended to an optical density of McFarland standard scale 0.5 equivalent to a bacterial density of 10^8 CFU/ml and then adjusted to a concentration of about 5.10^5 CFU/ml as indicated by the guideline CLSI M26-A and to a second inoculum tested: 10^6 CFU/ml.
(§7) 9 ml of bacterial inoculum grown to exponential phase is added to 1 ml of active ingredient (or Mueller Hinton II Broth for the growth control). Tubes are incubated at 35° C. during 24 hours.
(§8) At times 0, 2, 4, 6 and 24 hours, 100 μl of broth of each tube is sampled and diluted in microplates:
(§9) Each well is re-cultured by streaking 10 μl on Columbia agar supplemented with 5% of blood. Plates are incubated at 37° C. during 18-24 hours incubation. Thus, residual bacterial concentrations are determined (CFU/ml). Results are expressed in log10 values of CFU/ml over-time in broth. Due to the procedure used, the minimal bacterial concentration that can be assessed is 10^2 CFU/ml.

[1] = system: Staphylococcus pseudintermedius; assay: Time-killing curves, conclusion over strains; format: cell-based
Procedure: (§10) The time-killing curve is used to determine the bactericidal or bacteriostatic activity of the antibimicrobial substances. Time-killing curves of Oxyclozanide against canine isolates of Staphylococcus aureus and Staphylococcus pseudintermedius were obtained using broth macrodilution method. After contact of different fixed amounts of Oxyclozanide with an inoculum, viable bacteria are counted immediately after contact and after 1, 3, 6 and 24 hours. Counting is performed on agar medium without antimicrobial substance.
(§11) Results are analyzed by plotting log10 CFU/ml versus time for each tested concentration. Bactericidal activity as defined by 99.9% killing of the inoculum is determined from time-killing curves by noting the presence of a ≥3 log10 decrease in CFU/ml.
(§12) Bactericidal activity as defined by 99.9% killing of the inoculum is determined from time-killing curves by noting the presence of a ≥3 log10 decrease in CFU/ml.

Staphylococcus aureus = assay: Time-killing curves, conclusion over strains; format: cell-based
Procedure: as §10, §11, §12

MRSA 16110 = assay: Time-killing curve, inoculum 5.10^5 CFU/ml (MIC 1 μg/ml); format: cell-based, Staphylococcus aureus
Procedure: as §1, §2, §3, §4, §5, §6, §7, §8, §9

`O=C(Nc1cc(Cl)cc(Cl)c1O)c1c(O)c(Cl)cc(Cl)c1Cl` [Oxyclozanide] was tested, and the Counting results (MRSA 16116; 1 MIC, 0 h) was 3.900E+05 CFU/ml, the Counting results (MRSA 16116; 1 MIC, 2 h) was 1.700E+06 CFU/ml and the Counting results (MRSA 16116; 1 MIC, 4 h) was 2.500E+07 CFU/ml. The Counting results (MRSA 16116; 1 MIC, 6 h) was 1.600E+08 CFU/ml, the Counting results (MRSA 16116; 1 MIC, 24 h) was 1.300E+08 CFU/ml and the Counting results (MRSA 16116; 2 MIC, 0 h) was 3.900E+05 CFU/ml. The Counting results (MRSA 16116; 2 MIC, 2 h) was 1.200E+05 CFU/ml, the Counting results (MRSA 16116; 2 MIC, 4 h) was 1.300E+04 CFU/ml and the Counting results (MRSA 16116; 2 MIC, 6 h) was 1.400E+04 CFU/ml. The Counting results (MRSA 16116; 2 MIC, 24 h) was 3.500E+06 CFU/ml, the Counting results (MRSA 16116; 4 MIC, 0 h) was 3.900E+05 CFU/ml and the Counting results (MRSA 16116; 4 MIC, 2 h) was 6.000E+03 CFU/ml. It also gave a Counting results (MRSA 16116; 4 MIC, 4 h) of 6.000E+02 CFU/ml, a Counting results (MRSA 16116; 4 MIC, 6 h) of 4.000E+02 CFU/ml and a Counting results (MRSA 16116; 4 MIC, 24 h) of 1.000E+02 CFU/ml. The Counting results (MRSA 16116; 8 MIC, 0 h) was 3.900E+05 CFU/ml, the Counting results (MRSA 16116; 8 MIC, 2 h) was 5.000E+02 CFU/ml and the Counting results (MRSA 16116; 8 MIC, 4 h) was 1.000E+02 CFU/ml. The Counting results (MRSA 16116; 8 MIC, 6 h) was 1.000E+02 CFU/ml, the Counting results (MRSA 16116; 8 MIC, 24 h) was 1.000E+02 CFU/ml and the Counting results (MRSA 16116; 16 MIC, 0 h) was 3.900E+05 CFU/ml. The Counting results (MRSA 16116; 16 MIC, 2 h) was 3.000E+02 CFU/ml, the Counting results (MRSA 16116; 16 MIC, 4 h) was 1.000E+02 CFU/ml and the Counting results (MRSA 16116; 16 MIC, 6 h) was 3.000E+02 CFU/ml. The Counting results (MRSA 16116; 16 MIC, 24 h) was 1.000E+02 CFU/ml, the “Time to obtain bactericidal effect at 4 MIC” value (MRSA 16116; 16116/5.10^5 CFU/ml, >=3 log10 decrease in CFU) was 4 to 6 h and the Counting results (MRSA 16116; ¼ MIC, 0 h) was 3.900E+05 CFU/ml. The Counting results (MRSA 16116; ¼ MIC, 2 h) was 2.000E+06 CFU/ml, the Counting results (MRSA 16116; ¼ MIC, 4 h) was 4.000E+07 CFU/ml and the Counting results (MRSA 16116; ¼ MIC, 6 h) was 3.000E+08 CFU/ml. For the same compound, the Counting results (MRSA 16116; ¼ MIC, 24 h) was 1.900E+09 CFU/ml, the Counting results (MRSA 16116; ½ MIC, 0 h) was 3.900E+05 CFU/ml and the Counting results (MRSA 16116; ½ MIC, 2 h) was 1.700E+06 CFU/ml. The Counting results (MRSA 16116; ½ MIC, 4 h) was 3.000E+07 CFU/ml, the Counting results (MRSA 16116; ½ MIC, 6 h) was 1.400E+08 CFU/ml and the Counting results (MRSA 16116; ½ MIC, 24 h) was 2.600E+08 CFU/ml. For the same compound, the Pharmacodynamic profile [1] was “concentration-dependant”, the “Contact time at which bactericidal effect (≥3 log10 decrease in CFU/ml) is observed” value ([1]; concentration of 4 μg/ml) was 24 hours and the “Contact time at which bactericidal effect (≥3 log10 decrease in CFU/ml) is observed” value ([1]; concentration of 8 μg/ml) was 6 to 24 hours. For the same compound, the Pharmacodynamic profile (Staphylococcus aureus) was “concentration-dependant”, the “Contact time at which bactericidal effect (≥3 log10 decrease in CFU/ml) is observed” value (Staphylococcus aureus; concentration of 4 μg/ml) was 24 hours and the “Contact time at which bactericidal effect (≥3 log10 decrease in CFU/ml) is observed” value (Staphylococcus aureus; concentration of 8 μg/ml) was 6 to 24 hours. For the same compound, the Counting results (MRSA 16110; 1 MIC, 0 h) was 4.100E+05 CFU/ml, the Counting results (MRSA 16110; 1 MIC, 2 h) was 9.300E+04 CFU/ml and the Counting results (MRSA 16110; 1 MIC, 4 h) was 6.500E+04 CFU/ml. It also gave a Counting results (MRSA 16110; 1 MIC, 6 h) of 1.100E+05 CFU/ml, a Counting results (MRSA 16110; 1 MIC, 24 h) of 6.100E+05 CFU/ml and a Counting results (MRSA 16110; 2 MIC, 0 h) of 4.100E+05 CFU/ml. For the same compound, the Counting results (MRSA 16110; 2 MIC, 2 h) was 3.300E+03 CFU/ml, the Counting results (MRSA 16110; 2 MIC, 4 h) was 1.800E+03 CFU/ml and the Counting results (MRSA 16110; 2 MIC, 6 h) was 4.000E+02 CFU/ml. The Counting results (MRSA 16110; 2 MIC, 24 h) was 1.000E+02 CFU/ml, the Counting results (MRSA 16110; 4 MIC, 0 h) was 4.100E+05 CFU/ml and the Counting results (MRSA 16110; 4 MIC, 2 h) was 3.000E+02 CFU/ml. It also gave a Counting results (MRSA 16110; 4 MIC, 4 h) of 1.000E+02 CFU/ml, a Counting results (MRSA 16110; 4 MIC, 6 h) of 1.000E+02 CFU/ml and a Counting results (MRSA 16110; 4 MIC, 24 h) of 1.000E+02 CFU/ml. It also gave a Counting results (MRSA 16110; 8 MIC, 0 h) of 4.100E+05 CFU/ml, a Counting results (MRSA 16110; 8 MIC, 2 h) of 2.000E+02 CFU/ml and a Counting results (MRSA 16110; 8 MIC, 4 h) of 1.000E+02 CFU/ml. For the same compound, the Counting results (MRSA 16110; 8 MIC, 6 h) was 1.000E+02 CFU/ml, the Counting results (MRSA 16110; 8 MIC, 24 h) was 1.000E+02 CFU/ml and the Counting results (MRSA 16110; 16 MIC, 0 h) was 4.100E+05 CFU/ml. The Counting results (MRSA 16110; 16 MIC, 2 h) was 1.000E+02 CFU/ml, the Counting results (MRSA 16110; 16 MIC, 4 h) was 1.000E+02 CFU/ml and the Counting results (MRSA 16110; 16 MIC, 6 h) was 1.000E+02 CFU/ml. The Counting results (MRSA 16110; 16 MIC, 24 h) was 1.000E+02 CFU/ml, the “Time to obtain bactericidal effect at 4 MIC” value (MRSA 16110; 16110/5.10^5 CFU/ml, >=3 log10 decrease in CFU) was 2 h and the Counting results (MRSA 16110; ¼ MIC, 0 h) was 4.100E+05 CFU/ml. The Counting results (MRSA 16110; ¼ MIC, 2 h) was 1.400E+06 CFU/ml, the Counting results (MRSA 16110; ¼ MIC, 4 h) was 9.500E+07 CFU/ml and the Counting results (MRSA 16110; ¼ MIC, 6 h) was 1.600E+08 CFU/ml. The Counting results (MRSA 16110; ¼ MIC, 24 h) was 1.100E+09 CFU/ml, the Counting results (MRSA 16110; ½ MIC, 0 h) was 4.100E+05 CFU/ml and the Counting results (MRSA 16110; ½ MIC, 2 h) was 6.300E+05 CFU/ml. The Counting results (MRSA 16110; ½ MIC, 4 h) was 9.900E+06 CFU/ml, the Counting results (MRSA 16110; ½ MIC, 6 h) was 3.100E+07 CFU/ml and the Counting results (MRSA 16110; ½ MIC, 24 h) was 1.900E+08 CFU/ml.

Source: patent US11331289B2, “Antimicrobial composition” (priority 2017, dated 2022)
